In PMC4965013, “Open Source Drug Discovery with the Malaria Box Compound Collection for Neglected Diseases and Beyond” (PLoS Pathogens, 2016):

Assays:
[1] = tested on: P. falciparum 3D7 trophozoites; test: Metabolomic fingerprint profiling LC-MS; assay type: cell-based, Plasmodium falciparum; set-up: UDP-D-glucose / ADP-D-glucose: unit not given here; settings: for Acetyllysine / N-acetyl-L-ornithine / N-carbamoyl-L-aspartate / NADPH / dAMP / dCMP / dTDP / dTMP / dTTP / dihydroorotate / orotate / DLH / DLS/SDL/SID / PD / PEE / PVNF / 3-phosphoglycerate / ADP-D-glucose / ATP / CDP / D-sedoheptulose-1/7-phosphate / FAD / GMP / NAD+ / NADP+ / Octoluse Bisphosphate / Pyroglutamic acid / UDP-D-glucose / UDP-D-glucuronate / UDP-N-acetyl-glucosamine / UDP / UMP / UTP / a-ketoglutarate / citrate/isocitrate / cytidine / dATP / dGMP/AMP / fumarate / glucose-1/6-phosphate / glycerate / guanine / guanosine / hypoxanthine / indole / inosine / nicotinate / ornithine / phosphoenolpyruvate / pyruvate / ribose-phosphate / sarcosine/alanine / sn-glycerol-3-phosphate / succinate/methylmalonic acid / uridine / xanthosine: S2 Table Metabolomics; for Acetyllysine: metabolite Acetyllysine; for N-acetyl-L-ornithine: metabolite N-acetyl-L-ornithine; for N-carbamoyl-L-aspartate: metabolite N-carbamoyl-L-aspartate; for NADPH: metabolite NADPH; for dAMP: metabolite dAMP; for dCMP: metabolite dCMP; for dTDP: metabolite dTDP; for dTMP: metabolite dTMP; for dTTP: metabolite dTTP; for dihydroorotate: metabolite dihydroorotate; for orotate: metabolite orotate; for DLH: peptide DLH; for DLS/SDL/SID: peptide DLS/SDL/SID; for PD: peptide PD; for PEE: peptide PEE; for PVNF: peptide PVNF; for 3-phosphoglycerate: metabolite 3-phosphoglycerate; for ADP-D-glucose: metabolite ADP-D-glucose; for ATP: metabolite ATP; for CDP: metabolite CDP; for CDP / D-sedoheptulose-1/7-phosphate / GMP / Octoluse Bisphosphate / UDP / UMP / UTP / citrate/isocitrate / dGMP/AMP / fumarate / glucose-1/6-phosphate / glycerate / guanine / guanosine / inosine / pyruvate / sarcosine/alanine / succinate/methylmalonic acid / uridine / xanthosine: change in metabolite level after compound treatment; for D-sedoheptulose-1/7-phosphate: metabolite D-sedoheptulose-1/7-phosphate; for FAD: metabolite FAD; for GMP: metabolite GMP; for NAD+: metabolite NAD+; for NADP+: metabolite NADP+; for Octoluse Bisphosphate: metabolite Octoluse Bisphosphate; for Pyroglutamic acid: metabolite Pyroglutamic acid; for UDP-D-glucose: metabolite UDP-D-glucose; for UDP-D-glucuronate: metabolite UDP-D-glucuronate; for UDP-N-acetyl-glucosamine: metabolite UDP-N-acetyl-glucosamine; for UDP: metabolite UDP; for UMP: metabolite UMP; for UTP: metabolite UTP; for a-ketoglutarate: metabolite a-ketoglutarate; for citrate/isocitrate: metabolite citrate/isocitrate; for cytidine: metabolite cytidine; for dATP: metabolite dATP; for dGMP/AMP: metabolite dGMP/AMP; for fumarate: metabolite fumarate; for glucose-1/6-phosphate: metabolite glucose-1/6-phosphate; for glycerate: metabolite glycerate; for guanine: metabolite guanine; for guanosine: metabolite guanosine; for hypoxanthine: metabolite hypoxanthine; for indole: metabolite indole; for inosine: metabolite inosine; for 2_3-Diphosphoglyceric acid / 4-phosphopantothenate / 6-phospho-D-gluconate / FMN / IMP / Pyrophosphate / Sedoheptoluse bisphosphate / cyclic-AMP / glutathione disulfide / lactate / myo-inositol: metabolite level change after treatment; for nicotinate: metabolite nicotinate; for ornithine: metabolite ornithine; for phosphoenolpyruvate: metabolite phosphoenolpyruvate; for pyruvate: metabolite pyruvate; for ribose-phosphate: metabolite ribose-phosphate; for sarcosine/alanine: metabolite sarcosine/alanine; for sn-glycerol-3-phosphate: metabolite sn-glycerol-3-phosphate; for succinate/methylmalonic acid: metabolite succinate/methylmalonic acid; for uridine: metabolite uridine; for xanthosine: metabolite xanthosine
P. falciparum = test: EC50 listed in S2 Table Metabolomics (used to set the concentration tested); assay type: cell-based; settings: Plasmodium falciparum; EC50 used for Factor_XEC50 in metabolomics; read-out: EC50_nM

Structure (SMILES): CCOC(=O)c1cnc2c(C)cc(C)cc2c1Nc1ccc(OC)c(OC)c1 [MMV008294]
- Acetyllysine [1]: -0.3425
- N-acetyl-L-ornithine [1]: -0.09501
- N-carbamoyl-L-aspartate [1]: 2.682
- NADPH [1]: 1.75
- dAMP [1]: 0.2089
- dCMP [1]: -0.6198
- dTDP [1]: -0.4672
- dTMP [1]: -0.4876
- dTTP [1]: -1.144
- dihydroorotate [1]: 3.3871
- orotate [1]: -0.7416
- DLH [1]: -0.5675
- DLS/SDL/SID [1]: -0.4346
- PD [1]: -0.1287
- PEE [1]: -0.648
- PVNF [1]: -0.7723
- 3-phosphoglycerate [1]: -0.683
- ADP-D-glucose [1]: -0.352
- ATP [1]: -0.07176
- CDP [1]: -0.1705
- D-sedoheptulose-1/7-phosphate [1]: -0.3446
- FAD [1]: 0.0322
- GMP [1]: -0.1695
- NAD+ [1]: -0.3043
- NADP+ [1]: -0.3797
- Octoluse Bisphosphate [1]: -0.4297
- Pyroglutamic acid [1]: 0.3043
- UDP-D-glucose [1]: -0.27
- UDP-D-glucuronate [1]: -0.2831
- UDP-N-acetyl-glucosamine [1]: -0.5063
- UDP [1]: -0.5787
- UMP [1]: -1.283
- UTP [1]: -1.136
- a-ketoglutarate [1]: -0.236
- citrate/isocitrate [1]: 0.7822
- cytidine [1]: 0.0959
- dATP [1]: 1.0046
- dGMP/AMP [1]: -0.5258
- fumarate [1]: -0.9618
- glucose-1/6-phosphate [1]: 0.01885
- glycerate [1]: 0.4536
- guanine [1]: 0.3469
- guanosine [1]: 2.083
- hypoxanthine [1]: 0.2152
- indole [1]: 0.4569
- inosine [1]: 0.05445
- 2_3-Diphosphoglyceric acid [1]: -0.768
- 4-phosphopantothenate [1]: -0.7166
- 6-phospho-D-gluconate [1]: -0.1153
- FMN [1]: 0.06908
- IMP [1]: -0.2706
- Pyrophosphate [1]: -0.2511
- Sedoheptoluse bisphosphate [1]: -0.4052
- cyclic-AMP [1]: -0.1956
- glutathione disulfide [1]: -0.2281
- lactate [1]: 0.2967
- myo-inositol [1]: 0.2424
- nicotinate [1]: 0.04647
- ornithine [1]: -0.4808
- phosphoenolpyruvate [1]: -0.6158
- pyruvate [1]: 0.09912
- ribose-phosphate [1]: -0.7165
- sarcosine/alanine [1]: -0.5269
- sn-glycerol-3-phosphate [1]: -0.7886
- succinate/methylmalonic acid [1]: 0.008672
- uridine [1]: -0.03724
- xanthosine [1]: 0.1462
- EC50 (P. falciparum): 232 nM

Structure (SMILES): COc1ccc(-c2cc3c(SCC(=O)Nc4cc(C(F)(F)F)ccc4Cl)nccn3n2)cc1 [MMV396679]
- Acetyllysine [1]: -0.1115
- N-acetyl-L-ornithine [1]: -0.02651
- N-carbamoyl-L-aspartate [1]: 3.992
- NADPH [1]: 0.255
- dAMP [1]: 0.01076
- dCMP [1]: -0.01731
- dTDP [1]: -0.9721
- dTMP [1]: -0.9985
- dTTP [1]: -1.02
- dihydroorotate [1]: 4.797
- orotate [1]: 0.864
- DLH [1]: -0.2125
- DLS/SDL/SID [1]: -0.04913
- PD [1]: -0.04215
- PEE [1]: -0.3501
- PVNF [1]: -0.2936
- 3-phosphoglycerate [1]: -0.0577
- ADP-D-glucose [1]: -0.06603
- ATP [1]: 0.1822
- CDP [1]: -0.644
- D-sedoheptulose-1/7-phosphate [1]: 0.2024
- FAD [1]: 0.03763
- GMP [1]: 0.3849
- NAD+ [1]: -0.01439
- NADP+ [1]: -0.06317
- Octoluse Bisphosphate [1]: -0.02018
- Pyroglutamic acid [1]: 0.2933
- UDP-D-glucose [1]: -0.1121
- UDP-D-glucuronate [1]: -0.02141
- UDP-N-acetyl-glucosamine [1]: -0.3213
- UDP [1]: -1.37
- UMP [1]: -0.7971
- UTP [1]: -1.261
- a-ketoglutarate [1]: 0.1314
- citrate/isocitrate [1]: 0.05797
- cytidine [1]: 0.1643
- dATP [1]: 0.3792
- dGMP/AMP [1]: -0.06069
- fumarate [1]: -0.2305
- glucose-1/6-phosphate [1]: 0.5016
- glycerate [1]: 0.4143
- guanine [1]: 0.4991
- guanosine [1]: 0.9003
- hypoxanthine [1]: 0.3227
- indole [1]: 0.2561
- inosine [1]: 0.1928
- 2_3-Diphosphoglyceric acid [1]: 0.1312
- 4-phosphopantothenate [1]: -0.2367
- 6-phospho-D-gluconate [1]: 0.186
- FMN [1]: -0.2039
- IMP [1]: -0.06535
- Pyrophosphate [1]: 0.04157
- Sedoheptoluse bisphosphate [1]: -0.03524
- cyclic-AMP [1]: -0.06553
- glutathione disulfide [1]: 0.06998
- lactate [1]: 0.2306
- myo-inositol [1]: 0.2632
- nicotinate [1]: 0.2615
- ornithine [1]: 0.183
- phosphoenolpyruvate [1]: -0.02867
- pyruvate [1]: -0.158
- ribose-phosphate [1]: -0.4444
- sarcosine/alanine [1]: 0.1483
- sn-glycerol-3-phosphate [1]: -0.1937
- succinate/methylmalonic acid [1]: -0.8703
- uridine [1]: -0.4231
- xanthosine [1]: 0.3074
- EC50 (P. falciparum): 89.9 nM

Structure (SMILES): CCOC(=O)c1cn(CC)c2cc(N3CCCCC3)c(F)cc2c1=O [MMV665827]
- Acetyllysine [1]: 0.6167
- N-acetyl-L-ornithine [1]: 0.5501
- N-carbamoyl-L-aspartate [1]: 4.792
- NADPH [1]: 0.6598
- dAMP [1]: 0.7737
- dCMP [1]: 1.737
- dTDP [1]: 0.1707
- dTMP [1]: 0.8282
- dTTP [1]: 0.03923
- dihydroorotate [1]: 4.825
- orotate [1]: -0.5812
- DLH [1]: -0.7896
- DLS/SDL/SID [1]: 0.01567
- PD [1]: 0.7077
- PEE [1]: -1.44
- PVNF [1]: -0.1312
- 3-phosphoglycerate [1]: -0.02186
- ADP-D-glucose [1]: 0.2064
- ATP [1]: 0.6896
- CDP [1]: 0.1387
- D-sedoheptulose-1/7-phosphate [1]: 0.4202
- FAD [1]: 0.7349
- GMP [1]: -0.6725
- NAD+ [1]: 0.4401
- NADP+ [1]: 0.5706
- Octoluse Bisphosphate [1]: 0.2411
- Pyroglutamic acid [1]: -0.2796
- UDP-D-glucose [1]: 0.1953
- UDP-D-glucuronate [1]: -0.1324
- UDP-N-acetyl-glucosamine [1]: 0.2567
- UDP [1]: 0.4721
- UMP [1]: -1.447
- UTP [1]: -1.04
- a-ketoglutarate [1]: -0.2461
- citrate/isocitrate [1]: -1.463
- cytidine [1]: 0.4678
- dATP [1]: 0.6493
- dGMP/AMP [1]: 0.07314
- fumarate [1]: -0.2241
- glucose-1/6-phosphate [1]: 1.8807
- glycerate [1]: -0.09674
- guanine [1]: 1.02
- guanosine [1]: 0.7998
- hypoxanthine [1]: -0.3352
- indole [1]: -0.0107
- inosine [1]: 0.5749
- 2_3-Diphosphoglyceric acid [1]: 0.1079
- 4-phosphopantothenate [1]: 0.2143
- 6-phospho-D-gluconate [1]: 0.3355
- FMN [1]: 0.4894
- IMP [1]: 0.7697
- Pyrophosphate [1]: -1.117
- Sedoheptoluse bisphosphate [1]: 0.6312
- cyclic-AMP [1]: 0.6768
- glutathione disulfide [1]: 0.6276
- lactate [1]: 1.255
- myo-inositol [1]: 2.498
- nicotinate [1]: -0.197
- ornithine [1]: 0.8346
- phosphoenolpyruvate [1]: -0.2956
- pyruvate [1]: 0.5345
- ribose-phosphate [1]: 0.3041
- sarcosine/alanine [1]: 0.4367
- sn-glycerol-3-phosphate [1]: 0.2478
- succinate/methylmalonic acid [1]: -0.3191
- uridine [1]: 0.6011
- xanthosine [1]: -0.8841
- EC50 (P. falciparum): 119 nM
